Reference: US9618453B2, “Aggregation induced emission of fluorescent bioprobes and methods of using the same” (THE HONG KONG UNIVERSITY OF SCIENCE AND TECHNOLOGY, priority 2011, dated 2017)

Columns and labels:
[1] = target: bovine serum albumin (BSA) (Bos taurus, UniProt P02769); experiment: Fluorescence labeling of BSA with TPE-SO3 in phosphate buffer; settings: BSA 5 μM, pH 7.0
Procedure: Fluorescence labeling was carried out by sequentially adding solutions of TPE-SO3 to 100 μL aliquots of BSA solutions. The mixtures were stirred for half an hour prior to taking their spectra.
The PL peak intensities of the BSA prepared with the lowest concentrations of TPE-SO3 were used as the reference and plots of the normalized fluorescence versus the concentrations of TPE-SO3 were obtained (FIG. 22). […] TPE-SO3 is represented by the following chemical formula: […]

[2] = Photoluminescence in THF/water mixtures with different water fractions (aggregation induced emission); type: physicochemical; settings: water/THF solution, water fraction 90 vol %
Excerpt: The AIE of TPENCS is illustrated in FIG. 1. […] With water content ranging from 0-70%, the fluorescence intensity remained at a very low level. When the water concentration was in the 80-90 vol % range, a rapid and dramatic increase of the fluorescence intensity with increasing water content was observed (FIG. 1b). The PL intensity of TPENCS in the water/THF solution with a water fraction of 90 vol % was approximately 50-fold higher than that in the mixture with 70% water. The quantum efficiency of TPENCS was 52.2% in the solid state.
Similar to other AIE active molecules, TPEMBR only gave weak emission in good solvents such as THF. […] To quantify the effect of water content on the degree of fluorescent emission enhancement, the photoluminescence intensity of TPEMBR was measured where the fraction of water was increased from 0 to 90 vol %. With the water content in the range of 0-70%, the fluorescent intensity remained at a very low level. With the water fraction reaching the 80-90 vol % range, a rapid and dramatic increase of the fluorescent intensity was observed (FIG. 9b). The photoluminescence intensity of TPEMBR in the water/THF solution with a water fraction of 90 vol % was approximately 50-fold stronger than that in the mixture with 70% water. In the solid state, the quantum efficiency of TPEMBR was determined to be 31.7%.
The AIE of SITC is illustrated in FIGS. 17a and 17b. The wavelength at maximum absorption of SITC was at 363 nm and the emission maximum was at 490 nm. […] To quantify the effect of water content on the elevation of the fluorescent emission, the photoluminescence intensity of SITC was measured with concentration of water increasing from 0 to 90 vol %. With water content ranging from 0-70%, the fluorescent intensity remained at a very low level. When the water concentration was in the 80-95 vol % range, a rapid and dramatic increase of the fluorescent intensity with increasing water content was observed (FIG. 17b). The photoluminescence intensity of SITC in the water/THF solution with a water fraction of 95 vol % was approximately 50-fold higher than that in the mixture with 70% water. The quantum efficiency of SITC was 45.8% in the solid state.
(§1) Tetrahydrofuran (THF; Labscan) was distilled under nitrogen from sodium benzophenone ketyl immediately prior to use. Acrylamide was purchased from Bio-Rad. Aminoallyl-dUTP (aa-dUTP), dNTPs, DNase I (RNase-free), DNA Polymerase I, Klenow Fragment exo-, Random Hexamer Primer, Long PCR Enzyme Mix and GeneJET™ PCR Purification Kit, GeneRuler™ 100 bp Plus DNA Ladder (ready-to-use, 100-3000 bp), 6×DNA Loading Dye were purchased from Fermentas (Thermo Scientific). Deep VentR™ exo-DNA Polymerase was purchased from New England Biolabs (NEB). Synthesized oligonucleotides (primers) were purchased from Tech Drogon Limited. GelRed™ Nucleic Acid Gel Stain (10000× in water) was purchased from Biotium. Other chemicals, reagents and solvents were all purchased from Aldrich or Invitrogen. ^1H and ^13C NMR spectra were measured on a Bruker ARX 400 NMR spectrometer using CDCl3 as solvent. High-resolution mass spectra (HRMS) were taken on a Finnigan TSQ 7000 triple quadrupole spectrometer in a MALDI-TOF mode. UV spectra were measured on a Milton Roy Spectronic 3000 Array spectrophotometer. Fluorescence (FL) spectra were recorded on a Perkin-Elmer LS 55 spectrofluorometer. FL quantum yields (ΦF) of amorphous powders of siloles were measured using C-701 Time-Resolved Spectrofluorometer with the integrating sphere as accessory.
Structure of dye is confirmed by standard spectroscopic methods (FIGS. 23, 26a, and 27a). In order to confirm TPEITC is AIE-active, we investigated its fluorescence in THF/water mixtures with different water fractions. […] TPEITC molecules with hydrophobic aromatic cores precipitated and became aggregate in the nonsolvent mixture. Aggregation blocks the nonradiative relaxation channels and populates the radiative decay, thus resulting in high luminescence. […]

[3] = Fluorescence quantum efficiency in the solid state; type: physicochemical
Excerpt: as §1

[4] = target: BSA (35 Cys) (Bos taurus, UniProt P02769); experiment: Fluorescent labeling of Cys residues of protein with TPEMBR, SDS-PAGE; parameters: species or system bovine
Procedure: (§2) 2.5 μL Tris-HCl (1 M), 2.5 μL TCEP (20 mM), 5 μL BSA (1 mg/mL, 15 μM), and 30 μL urea (8 M in water) was added to a 1.5 mL Eppendorf tube and mixed well. The mixture was incubated at room temperature for 30 min to pre-reduce the disulfide bonds with TCEP. Then, 10 μL of the TPEMBR DMSO stock solution (2.5 mM 5×) was added to the system and made the final volume 50 μL. The reaction mixture was incubated for 3 hours at 50° C. in an Eppendorf Thermomixer. Then, samples were cooled either to room temperature for instant use or frozen for eventual use.
In order to ensure that the Cys residues were sufficiently labeled with TPEMBR, a longer reaction time (usually overnight) at or below room temperature was required. Alternatively, the reaction time could be reduced if labeling was carried out at 50° C. To verify the time-dependence of labeling efficiency, bovine serum albumin (BSA) samples were labeled with TPEMBR for different times ranging from 10 min to 4 h and analyzed by SDS-PAGE. The fluorescence intensity of the labeled BSA increased as the reaction time was extended. The maximum intensity under specific labeling conditions was observed after 3 h and remained unchanged even with an additional 1 h of reaction time (FIGS. 11a and 11b). […] The time-dependent labeling effect provides a way to determine the desirable DOL according to different applications by simply controlling the labeling time. Meanwhile, a lower temperature labeling process with a longer reaction time could be a better choice to obtain fluorescent proteins while maintaining their native structures.
BSA samples were subjected to labeling with different dye concentrations. The SDS-PAGE fluorescence intensity of labeled BSA increased with increasing dye concentration. […] Further increasing the dye concentration could give higher fluorescence intensity due to nonspecific labeling. Clearly, the DOL of protein samples can be controlled by varying the dye concentration.
(§3) Specific labeling of Cys residues by TPEMBR was examined through the labeling of proteins with different Cys contents. BSA (35 Cys), yeast enolase (single Cys) and horse myoglobin (0 Cys) were labeled with 0.5 mM of TPEMBR, respectively. The corresponding fluorescent products were analyzed on gel. […] The results further confirmed the specificity of TPEMBR to Cys residue when the working concentration of 0.5 mM was used.
BSA was labeled by each dye with a series of varying dye/thiol ratios. After the electrophoresis, the gel fluorescent image was taken under UV excitation and the fluorescence intensity was obtained from three independent experiments. Fluorescence intensities normalized with the sample with the lowest dye concentration are plotted versus the dye/thiol ratio (FIG. 16). […] This self-quenching effect is inevitable for self-quenching dyes such as 5-BMF and limits these dyes' application on quantification of proteins. In contrast, detection and quantification of proteins with high contents of Cys can be easily achieved by using AIE active molecules such as TPEMBR.

[5] = target: horse myoglobin (0 Cys) (Equus caballus, UniProt P68082); experiment: as above; settings: 0.5 mM dye
Procedure: as §2, §3

[6] = Quantum efficiency of TPEMBR before and after reaction with dithiothreitol (DTT); type: physicochemical; settings: water/THF solution, water fraction 90 vol %
Procedure: In addition to the enhancement of fluorescence because of its AIE property, TPEMBR becomes even more emissive through the reaction between its bromomethyl group and thiol group of proteins, presumably due to the elimination of the internal heavy atom effect of bromide. […] TPEMBR and DTT in equal amount were dissolved in THF to give a concentration of 10 μM for each component. The mixture was then incubated at room temperature overnight. Photoluminescence intensity and UV absorption of TPEMBR were measured in THF/water mixtures with a water fraction of 90 vol % before and after reacting with DTT. As shown in FIGS. 12a and 12b, the quantum efficiency of TPEMBR in the water/THF solution with a water fraction of 90 vol % was approximately 3 times higher after reacting with DTT.

Chain of BSA (35 Cys) (P02769 25-607): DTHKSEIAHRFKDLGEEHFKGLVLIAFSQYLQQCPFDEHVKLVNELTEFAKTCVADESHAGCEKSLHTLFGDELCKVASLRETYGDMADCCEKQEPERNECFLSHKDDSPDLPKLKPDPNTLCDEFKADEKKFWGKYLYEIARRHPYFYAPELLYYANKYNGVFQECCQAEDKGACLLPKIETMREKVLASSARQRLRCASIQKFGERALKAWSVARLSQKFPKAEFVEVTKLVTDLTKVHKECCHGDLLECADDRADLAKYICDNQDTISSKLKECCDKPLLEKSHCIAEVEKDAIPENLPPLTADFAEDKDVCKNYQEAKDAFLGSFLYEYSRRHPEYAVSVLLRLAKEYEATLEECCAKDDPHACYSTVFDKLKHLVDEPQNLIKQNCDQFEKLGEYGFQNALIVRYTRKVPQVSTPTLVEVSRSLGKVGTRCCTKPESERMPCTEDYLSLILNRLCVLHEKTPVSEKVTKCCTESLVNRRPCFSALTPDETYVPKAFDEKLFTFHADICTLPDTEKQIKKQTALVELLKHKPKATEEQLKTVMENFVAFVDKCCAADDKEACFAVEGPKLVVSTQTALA
Chain of horse myoglobin (0 Cys) (P68082 whole entry): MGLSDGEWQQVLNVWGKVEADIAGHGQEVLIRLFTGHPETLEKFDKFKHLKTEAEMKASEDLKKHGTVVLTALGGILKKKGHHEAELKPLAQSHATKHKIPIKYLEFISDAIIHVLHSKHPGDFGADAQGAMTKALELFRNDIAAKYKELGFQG
Chain of bovine serum albumin (BSA) (P02769 25-607): as the sequence (P02769 25-607) above

SMILES	fluorescence intensity of labeled BSA versus dye concentration [1]	PL intensity relative to the mixture with 70% water [2]	quantum efficiency [3]	emission of labeled protein on gel ([4]; 0.5 mM dye)	dye concentration at which maximum intensity was reached ([4]; SDS-PAGE fluorescence intensity of labeled BSA)	labeling time to maximum fluorescence intensity ([4]; labeling at 50° C., 10 min to 4 h)	self-quenching effect versus dye/thiol ratio ([4]; series of dye/thiol ratios)	emission of labeled protein on gel [5]	quantum efficiency after reacting with DTT relative to before [6]
O=S(=O)([O-])CCCOc1ccc(C(=C(c2ccccc2)c2ccc(OCCCS(=O)(=O)[O-])cc2)c2ccccc2)cc1.[Na+].[Na+] (mixture of isomers) [TPE-SO3]	increased continuously	–	–	–	–	–	–	–	–
BrCc1ccc(C(=C(c2ccccc2)c2ccccc2)c2ccccc2)cc1 [TPEMBR]	–	approximately 50 fold	31.7%	much higher emission than yeast enolase	≥ 0.5 mM	3 h	kept on increasing	no fluorescence at all	approximately 3 times
